The record followed here is patent US3957850A, “Phenylacetic acid derivatives” (priority 1971, dated 1976).

Broadly, the LD50 is the dose at which mortality reaches 50%.

Data set [1] in a line: Acute toxicity determination, oral LD50 by method of BEHRENS and KARBER. To be noted: mouse, in vivo, female Swiss mice, 48 hours observation. How it is done:
Acute toxicity tests were carried out with lots of 10 female mice of "Swiss" strain, weighing from 19 to 21 g.
The means lethal dose (LD50) by the oral route was determined by means of the method of BEHRENS and KARBER after keeping the animals under observation during 48 hours. In this table are also set forth the LD50 of acetylsalicylic acid and of indometacine used as reference materials.

Data set [2] relates to peritoneal pain induced by injection of acetic acid. The data set is described as follows: Analgesic activity: inhibition test of the peritoneal pain induced by injection of acetic acid (writhing). The class given is in vivo, mice. To be noted: Mus musculus, read-out: % analgesia. How it is done:
The analgesic activity was determined by the inhibition test of the peritoneal pain induced by injection of acetic acid.
The materials having an analgesic action reduce or eliminate this syndrome.
Lots of 10 mice are given orally the various test compounds, 30 minutes prior to injection of the challenging material. The writhing movements are counted during 15 minutes and the analgesic effect is expressed as percent decrease of the number of stretching movements with respect to the reference animals.
The same test was carried out with acetylsalicylic acid.
In general terms: In writhing tests, fewer writhes than in controls are read as antinociception.

Data set [3] deals with carragheenin-induced edema of the paws. In words: Anti-inflammatory activity: test of the carragheenin-induced edema of the paws in rats. The class given is in vivo. To be noted: Rattus norvegicus, 1 h, read-out: % inhibition of inflammation; for inhibition in vivo at 67 mg/kg: 67 mg/kg (about 1/36 of LD50); for inhibition in vivo at 33 mg/kg: 33 mg/kg (about 1/36 of LD50); for inhibition in vivo at 50 mg/kg: 50 mg/kg (about 1/36 of LD50). How it is done:
The anti-inflammatory activity was determined by means of the test of the carragheenin-induced edema of the pawsin rats.
Male rats weighing about 120 g are administered 0.1 ml of an 0.5% carragheenin suspension (plantar sub-aponeurotic injection) one hour after oral treatment with the various test compounds.
The volume of the rear paws is measured prior to injection of the inflammatory agent, and then 2, 3 and 4 hours after injection.
The difference between the volume of the paws of the treated animals and the volume of the paws of the reference animals evidences the anti-inflammatory action of the various test compounds.
The same test was carried out with indometacine.

[4] abbreviates: mice, oral, 30 minutes before acetic acid.
[5] abbreviates: male rats, oral, one hour before carragheenin.
Where [6] appears, read: male rats, oral, 81 mg/kg (about 1/36 of LD50), one hour before carragheenin.

Structures are written as SMILES. Where two headings read alike, the source gives them in different places.

Regarding `CC(C)Nc1ccc(CC(=O)O)cc1` [p-isopropylaminophenylacetic acid, p-Isopropylaminophenylacetic acid], the LD50 at 48 h in data set [1] was determined as 2400 mg/kg. Moreover, the inhibition in vivo at 13.5 mg/kg in data set [2] (setting [4]) was 42%. The inhibition in vivo at 67 mg/kg in data set [3] (setting [5]) turned out to be 42%.

`CC(=O)Oc1ccccc1C(=O)O` [acetylsalicylic acid, reference compound]: the LD50 at 48 h in data set [1] amounted to 1500 mg/kg. For the same compound, the inhibition in vivo at 100 mg/kg in data set [2] (po) was found to be 55%.

In turn, `CCCNc1ccc(C(C)C(=O)O)cc1` (stereo not shown) [2-(p-n-propylaminophenyl)-propionic acid, 2-(p-n-Propylaminophenyl)propionic acid] showed an LD50 at 48 h in data set [1] of 2400 mg/kg. In data set [2] (setting [4]), the inhibition in vivo at 13.5 mg/kg is 61%. Besides, the inhibition in vivo at 67 mg/kg in data set [3] (setting [5]) was 47%.

Regarding `C=CCNc1ccc(C(C)C(=O)[O-])cc1.[Li+]` (stereo not shown), the LD50 at 48 h in data set [1] came out at 2910 mg/kg.

As to `C=C(C)CNc1ccc(CC(=O)OCC)cc1` [ethyl p-methallylaminophenylacetate, Ethyl p-methallylaminophenylacetate], the median lethal dose (LD50) at 48 h in data set [1] was determined as 2400 mg/kg. Further, the inhibition in vivo at 67 mg/kg in data set [2] (setting [4]) came to 51%; in data set [3] (setting [5]), 38%.

In turn, `C#CCNc1ccc(C(C)C(=O)O)cc1` (stereo not shown) [2-(p-propargylaminophenyl)propionic acid, 2-(p-Propargylaminophenyl)-propionic acid] came in with an LD50 at 48 h in data set [1] of 2400 mg/kg. In addition, in data set [2] (setting [4]), the inhibition in vivo at 13.5 mg/kg turned out to be 55%. In addition, the inhibition in vivo at 67 mg/kg in data set [3] (setting [5]) was determined as 47%.

Consider `CCCNc1ccc(CC(=O)O)cc1` [p-n-propylaminophenylacetic acid, p-n-Propylaminophenylacetic acid], for which, in data set [1], the LD50 at 48 h came out at 2400 mg/kg. The inhibition in vivo at 27 mg/kg in data set [2] (setting [4]) came out at 49%. Moreover, the inhibition in vivo at 67 mg/kg in data set [3] (setting [5]) amounted to 38%.

In data set [1], `CCCCNc1ccc(CC(=O)O)cc1` [p-n-butylaminophenylacetic acid, p-n-Butylaminophenylacetic acid] displayed an LD50 at 48 h of 1200 mg/kg. The inhibition in vivo at 33 mg/kg in data set [2] (mice, oral, 33 mg/kg, 30 minutes before acetic acid) is 51%; in data set [3] (setting [5]), 21%.

`C=CCNc1ccc(C(C)C(=O)O)cc1` (stereo not shown) [2-(p-allylaminophenyl)propionic acid, 2-(p-Allylaminophenyl)-propionic acid] showed an LD50 at 48 h in data set [1] of 1780 mg/kg. Also, the inhibition in vivo at 20 mg/kg in data set [2] (mice, oral, 20 mg/kg, 30 minutes before acetic acid) was 50%. The inhibition in vivo at 50 mg/kg in data set [3] (setting [5]) came to 50%.

Consider `CCNc1ccc(CC(=O)O)cc1` [p-ethylaminophenylacetic acid, p-Ethylaminophenylacetic acid], for which, in data set [1], the median lethal dose (LD50) at 48 h stood at 2910 mg/kg. Moreover, the inhibition in vivo at 16 mg/kg in data set [2] (mice, oral, 16 mg/kg, 30 minutes before acetic acid) is 37.5%. The inhibition in vivo at 81 mg/kg in data set [3] (setting [6]) was found to be 23%.

`C=C(C)CNc1ccc(CC(=O)O)cc1` [p-methallylaminophenylacetic acid, p-Methallylaminophenylacetic acid] yielded a median lethal dose (LD50) at 48 h in data set [1] of 1780 mg/kg. Moreover, the inhibition in vivo at 49 mg/kg was determined as 32% in data set [2] (mice, oral, 49 mg/kg, 30 minutes before acetic acid) and 25% in data set [3] (male rats, oral, 49 mg/kg (about 1/36 of LD50), one hour before carragheenin).

`C=C(C)CNc1ccc(C(C)C(=O)O)cc1` (stereo not shown) [2-(p-methallylaminophenyl)propionic acid, 2-(p-Methallylaminophenyl)propionic acid]: the LD50 at 48 h in data set [1] came out at 2400 mg/kg. Moreover, in data set [2] (mice, oral, 7 mg/kg, 30 minutes before acetic acid), the inhibition in vivo at 7 mg/kg amounted to 58%. Moreover, the inhibition in vivo at 67 mg/kg in data set [3] (setting [5]) was determined as 51%.

The compound `C#CCNc1ccc(CC(=O)O)cc1` [p-propargylaminophenylacetic acid] returned a 50% lethal dose (LD50) at 48 h in data set [1] of 2910 mg/kg. Further, the inhibition in vivo at 36 mg/kg in data set [2] (setting [4]) was determined as 51%. In data set [3] (setting [6]), the inhibition in vivo at 81 mg/kg stood at 18%.

Take `CCCCNc1ccc(C(C)C(=O)O)cc1` (stereo not shown) [2-(p-n-butylaminophenyl)propionic acid, 2-(p-n-Butylaminophenyl)propionic acid]: the LD50 at 48 h in data set [1] was found to be 1200 mg/kg. In data set [2] (mice, oral, 13 mg/kg, 30 minutes before acetic acid), the inhibition in vivo at 13 mg/kg worked out at 50%. For the same compound, the inhibition in vivo at 33 mg/kg in data set [3] (setting [5]) was found to be 33%.

Turning to `C=CCNc1ccc(C(C)C(=O)OC)cc1` (stereo not shown) [methyl 2-(p-allylaminophenyl)propionate, Methyl 2-(p-allylaminophenyl)-propionate], in data set [1], the median lethal dose (LD50) at 48 h was 1600 mg/kg. In data set [2] (mice, oral, 25 mg/kg, 30 minutes before acetic acid), the inhibition in vivo at 25 mg/kg was 57%. In data set [3] (setting [5]), the inhibition in vivo at 50 mg/kg amounted to 35%.

For the compound `CNc1ccc(C(C)C(=O)O)cc1` (stereo not shown) [2-(p-methylaminophenyl)propionic acid, 2-(p-Methylaminophenyl)propionic acid], the LD50 at 48 h in data set [1] was above 3200 mg/kg. In addition, the inhibition in vivo at 36 mg/kg in data set [2] (setting [4]) is 60%. The inhibition in vivo at 89 mg/kg in data set [3] (male rats, oral, 89 mg/kg (about 1/36 of LD50), one hour before carragheenin) turned out to be 44%.

In data set [1], `C=CCNc1ccc(CC(=O)OCC)cc1` [ethyl p-allylaminophenylacetate, Ethyl para-allylaminophenylacetate] returned an LD50 at 48 h of 2400 mg/kg. For the same compound, the inhibition in vivo at 67 mg/kg in data set [2] (setting [4]) worked out at 41%; in data set [3] (setting [5]) it was 39%.

Turning to `O=C(O)Cc1ccc(NCc2ccccc2)cc1` [p-benzylaminophenylacetic acid, p-Benzylaminophenylacetic acid], the LD50 at 48 h in data set [1] worked out at 2400 mg/kg. Moreover, the inhibition in vivo at 67 mg/kg in data set [2] (setting [4]) was 33%; in data set [3] (setting [5]), 26%.

The compound `CC(C)Nc1ccc(C(C)C(=O)O)cc1` (stereo not shown) [2-(p-isopropylaminophenyl)propionic acid, 2-(p-Isopropylaminophenyl)-propionic acid] had an LD50 at 48 h in data set [1] of 2400 mg/kg. For the same compound, the inhibition in vivo at 27 mg/kg in data set [2] (setting [4]) was determined as 56%. For the same compound, the inhibition in vivo at 67 mg/kg in data set [3] (setting [5]) was determined as 44%.

In the case of `CC(C(=O)O)c1ccc(NCc2ccccc2)cc1` (stereo not shown) [2-(p-benzylaminophenyl)propionic acid], the median lethal dose (LD50) at 48 h in data set [1] stood at 880 mg/kg. For the same compound, the inhibition in vivo at 10 mg/kg in data set [2] (mice, oral, 10 mg/kg, 30 minutes before acetic acid) amounted to 47%. Further, in data set [3] (male rats, oral, 25 mg/kg (about 1/36 of LD50), one hour before carragheenin), the inhibition in vivo at 25 mg/kg worked out at 12%.

In the case of `C=C(C)CNc1ccc(C(C)C(=O)OC)cc1.Cl` (stereo not shown) [Methyl 2-(p-methallylaminophenyl)-propionate hydrochloride], the LD50 at 48 h in data set [1] is 2400 mg/kg. Besides, in data set [2] (setting [4]), the inhibition in vivo at 27 mg/kg was determined as 49%. Further, the inhibition in vivo at 67 mg/kg in data set [3] (setting [5]) is 46%.

Compound `COc1ccc2c(c1)c(CC(=O)O)c(C)n2C(=O)c1ccc(Cl)cc1` [indometacine, reference compound] had a 50% lethal dose (LD50) at 48 h in data set [1] of 50 mg/kg. In addition, the inhibition in vivo at 5 mg/kg in data set [3] (po) was determined as 37%.

As to `CCNc1ccc(C(C)C(=O)O)cc1` (stereo not shown) [2-(p-ethylaminophenyl)propionic acid, 2-(p-Ethylaminophenyl)propionic acid], the median lethal dose (LD50) at 48 h in data set [1] amounted to 2400 mg/kg. Further, in data set [2] (setting [4]), the inhibition in vivo at 27 mg/kg came to 44%. In data set [3] (setting [5]), the inhibition in vivo at 67 mg/kg was found to be 47%.

In data set [1], `C=CCNc1ccc(CC(=O)O)cc1` [p-allylaminophenylacetic acid, p-Allylaminophenylacetic acid] had an LD50 at 48 h of 1550 mg/kg. For the same compound, the inhibition in vivo at 100 mg/kg in data set [2] (mice, oral, 100 mg/kg, 30 minutes before acetic acid) was determined as 51%. Besides, the inhibition in vivo at 45 mg/kg in data set [3] (male rats, oral, 45 mg/kg (about 1/36 of LD50), one hour before carragheenin) worked out at 32%.

Consider `C=CCNc1ccc(C(C)C(=O)[O-])cc1.[Li+]` (stereo not shown) [lithium salt], for which the inhibition in vivo at 81 mg/kg in data set [2] (po) was 28%; in data set [3] (po), 59%.
